{"source": "paper PMC12548092", "about": "“Exploring Helical Fraying Linked to Dynamics and Catalysis in Adenylate Kinase” (Biochemistry, 2025)", "target": "T1, hAK1 (Homo sapiens, UniProt P00568)", "T1 construct": "gene AK1; pET24d, E. coli BL21 (DE3), Blue Sepharose and size exclusion; 15N/13C-labelled", "T1 sequence (P00568 1-194)": "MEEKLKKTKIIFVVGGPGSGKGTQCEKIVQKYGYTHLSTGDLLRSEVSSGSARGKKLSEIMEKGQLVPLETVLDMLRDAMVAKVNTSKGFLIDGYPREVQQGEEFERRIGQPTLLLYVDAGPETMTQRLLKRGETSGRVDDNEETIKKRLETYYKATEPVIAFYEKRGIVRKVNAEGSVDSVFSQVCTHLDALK", "test": "NMR backbone assignment and […] relaxation order parameters", "type": "binding", "conditions": "30 mM MES, 50 mM NaCl, pH 5.5 (assignment), 298 K", "data": [{"compound": "Nc1ncnc2c1ncn2[C@@H]1O[C@H](COP(=O)(O)OP(=O)(O)OP(=O)(O)OP(=O)(O)OP(=O)(O)OC[C@H]2O[C@@H](n3cnc4c(N)ncnc43)[C@H](O)[C@@H]2O)[C@@H](O)[C@H]1O", "note": "[Ap5A]", "values": [{"measurement": "NMR backbone assignment and 15N relaxation order parameters", "value": "one helical turn in the α-helix at the N-terminus of the catalytic loop"}]}]}
